Several values for one entry are separate records, joined by “and”; a condition that tells them apart may be missing. Identical values can stand only once.
system: cos-7 cells; assay: DNA transfection: luciferase expression relative to Lipofectamine 2000; assay type: cell-based; settings: lipid/DNA 2.5 w/w; 300 ng Luciferase DNA per well; luciferase assay after 48 hours
Protocol: 14,000 cos-7 cells (ATCC, Manassas, Va.) were seeded into each well of a solid white or clear 96 well plate (Corning-Costar, Kennebunk, Me.) and allowed to attached overnight in growth medium, composed of: 500 ml phenol red minus DMEM, 50 ml heat inactivated FBS, 5 ml penicillin/streptomycin (Invitrogen, Carlsbad, Calif.).
A small liquot of lipid was tranferred to an Eppendorf tube. Based on the mass of the lipid in the tube, sterile 25 mM sodium acetate buffer was added to each tube to yield a concentration of 60 mg/ml. The resulting mixture was vortexed for approximately 20 minutes until the lipid was fully dissolved. DNA was prepared based on 300 ng DNA per well of a 96-well plate. 291 μg of Lc DNA was dissolved in 9210 μl of 25 mM sodium acetate buffer. Aliquots of 30 μl of DNA solution were added to each well expect for the last column which was reserved for the Lipo2000 standard. For the last column of the plate, 61 μg of DNA was added to 1940 μl Optimem. 150 μl of media/Optimem was added to each well of plates. 50 μl of lipid solution was aliquoted into wells of robot plate. The following amounts were aliquoted to obtain the correct ratios of DNA to lipid:
In quadruplicate, 30 μl of lipid was aliquoted onto DNA in four rows for each ratio. For the Lipo2000 control (2.5 w/w ratio to DNA), 152.5 μg of Lipo sample was aliquoted into 1847.5 μl of Optimem. 30 μl of this solution was aliquoted onto DNA in the Optimem in the last columns of each plate. The plates were incubated for 15-20 minutes, and then 36.5 μl of lipid+DNA complexes was transferred into 150 μl of media/Optimem, then add to cells. The media was aspirated off the cells, and 105 μl of the lipid/DNA/media/Optimem solution was added to the cells. The luciferase assay was performed after 48 hours.
Luminescence was analyzed using bright-glo assay kits (Promega). Briefly, 100 μl of bright-glo solution was added to each well of the microtiter plate containing media and cells. Luminescence was measured using a Mithras Luminometer (Berthold, Oak Ridge, Tenn.). In some cases, a neutral density filter (Chroma, Brattleboro, Vt.) was used to prevent saturation of the luminometer. A standard curve for Luciferase was generated by titration of Luciferase enzyme (Promega) into growth media in white microtiter plates. Luciferase in ng per well are calculated for each of the lipids at 2.5 w/w, 5 w/w, 10 w/w, 15 w/w, 20 w/w, and 25 w/w lipid to DNA based on the standard curve.
The table below summarizes the data as a % of the luciferase activity obtained from the use of Lipofectamine 2000. The table indicates the best lipids for transfection.

`CCCCCCCCCCOC(=O)CCN(CCCO)CCC(=O)OCCCCCCCCCC` [LB20] and `CCCCCCCCCCOC(=O)CCN(CCCCO)CCC(=O)OCCCCCCCCCC` [LB28] are the same in “Luciferase expression as a percentage of that achieved using Lipofectamine 2000” value (from here on “Luciferase expression as a percentage”): 0.1% for the first, 0.1% for the second.

Going from `CCCCCCCCCCOC(=O)CCN(CCC(=O)OCCCCCCCCCC)C[C@@H](C)O` [LB21] to `CCCCCCCCCCOC(=O)CCN(CCC(=O)OCCCCCCCCCC)C[C@H](C)O` [LB22], the “Luciferase expression as a percentage” value falls from 0.7% to 0.3%.

First: CCCCCCCCCCOC(=O)CCN(CCC(=O)OCCCCCCCCCC)CC(O)CO (stereo not drawn) [LB24]
Second: CCCCCCCCCCOC(=O)CCN(CCC(=O)OCCCCCCCCCC)C(CO)CO [LB25]
The “Luciferase expression as a percentage” value of the first is lower: 0.1% for the first, 0.8% for the second.

`CCCCCCCCCCOC(=O)CCN(CCC(=O)OCCCCCCCCCC)C(C)(CO)CO` [LB26] was tested, and the “Luciferase expression as a percentage” value was 0.1%.

With `CCCCCCCCCCOC(=O)CCN(CCOCCO)CCC(=O)OCCCCCCCCCC` [LB31] the “Luciferase expression as a percentage” value was 1.2% and 0.1%.

same assay, conditions: lipid/DNA 5 w/w; 300 ng Luciferase DNA per well; luciferase assay after 48 hours

`CCCCCCCCCCOC(=O)CCN(CCCO)CCC(=O)OCCCCCCCCCC` [LB20] and `CCCCCCCCCCOC(=O)CCN(CCCCO)CCC(=O)OCCCCCCCCCC` [LB28] are the same in “Luciferase expression as a percentage” value: 0.1% for the first, 0.1% for the second.

Going from `CCCCCCCCCCOC(=O)CCN(CCC(=O)OCCCCCCCCCC)C[C@@H](C)O` [LB21] to `CCCCCCCCCCOC(=O)CCN(CCC(=O)OCCCCCCCCCC)C[C@H](C)O` [LB22], the “Luciferase expression as a percentage” value falls from 0.8% to 0.3%.

Compared with `CCCCCCCCCCOC(=O)CCN(CCC(=O)OCCCCCCCCCC)CC(O)CO` (stereo not drawn) [LB24], `CCCCCCCCCCOC(=O)CCN(CCC(=O)OCCCCCCCCCC)C(CO)CO` [LB25] is higher in “Luciferase expression as a percentage” value: 0.2% for the first, 2.4% for the second.

In the case of `CCCCCCCCCCOC(=O)CCN(CCC(=O)OCCCCCCCCCC)C(C)(CO)CO` [LB26], the “Luciferase expression as a percentage” value is reported as 0.1%.

`CCCCCCCCCCOC(=O)CCN(CCOCCO)CCC(=O)OCCCCCCCCCC` [LB31] was tested, and the “Luciferase expression as a percentage” value was 0.8% and 0.1%.

same assay, conditions: lipid/DNA 10 w/w; 300 ng Luciferase DNA per well; luciferase assay after 48 hours

First: CCCCCCCCCCOC(=O)CCN(CCCO)CCC(=O)OCCCCCCCCCC [LB20]
Second: CCCCCCCCCCOC(=O)CCN(CCCCO)CCC(=O)OCCCCCCCCCC [LB28]
The “Luciferase expression as a percentage” value of the first is higher: 0.4% for the first, 0.1% for the second.

Going from `CCCCCCCCCCOC(=O)CCN(CCC(=O)OCCCCCCCCCC)C[C@@H](C)O` [LB21] to `CCCCCCCCCCOC(=O)CCN(CCC(=O)OCCCCCCCCCC)C[C@H](C)O` [LB22], the “Luciferase expression as a percentage” value falls from 0.7% to 0.4%.

Going from `CCCCCCCCCCOC(=O)CCN(CCC(=O)OCCCCCCCCCC)CC(O)CO` (stereo not drawn) [LB24] to `CCCCCCCCCCOC(=O)CCN(CCC(=O)OCCCCCCCCCC)C(CO)CO` [LB25], the “Luciferase expression as a percentage” value rises from 0.4% to 2.6%.

With `CCCCCCCCCCOC(=O)CCN(CCC(=O)OCCCCCCCCCC)C(C)(CO)CO` [LB26] the “Luciferase expression as a percentage” value was 0.1%.

With `CCCCCCCCCCOC(=O)CCN(CCOCCO)CCC(=O)OCCCCCCCCCC` [LB31] the “Luciferase expression as a percentage” value was 8.3% and 0.1%.

same assay, conditions: lipid/DNA 15 w/w; 300 ng Luciferase DNA per well; luciferase assay after 48 hours

Going from `CCCCCCCCCCOC(=O)CCN(CCCO)CCC(=O)OCCCCCCCCCC` [LB20] to `CCCCCCCCCCOC(=O)CCN(CCCCO)CCC(=O)OCCCCCCCCCC` [LB28], the “Luciferase expression as a percentage” value falls from 0.2% to 0.1%.

Going from `CCCCCCCCCCOC(=O)CCN(CCC(=O)OCCCCCCCCCC)C[C@@H](C)O` [LB21] to `CCCCCCCCCCOC(=O)CCN(CCC(=O)OCCCCCCCCCC)C[C@H](C)O` [LB22], the “Luciferase expression as a percentage” value falls from 0.7% to 0.4%.

First: CCCCCCCCCCOC(=O)CCN(CCC(=O)OCCCCCCCCCC)CC(O)CO (stereo not drawn) [LB24]
Second: CCCCCCCCCCOC(=O)CCN(CCC(=O)OCCCCCCCCCC)C(CO)CO [LB25]
The “Luciferase expression as a percentage” value of the first is lower: 0.1% for the first, 3.3% for the second.

In the case of `CCCCCCCCCCOC(=O)CCN(CCC(=O)OCCCCCCCCCC)C(C)(CO)CO` [LB26], the “Luciferase expression as a percentage” value is reported as 0.1%.

`CCCCCCCCCCOC(=O)CCN(CCOCCO)CCC(=O)OCCCCCCCCCC` [LB31] was tested, and the “Luciferase expression as a percentage” value was 1.9% and 0.1%.

same assay, conditions: lipid/DNA 20 w/w; 300 ng Luciferase DNA per well; luciferase assay after 48 hours

Compared with `CCCCCCCCCCOC(=O)CCN(CCCO)CCC(=O)OCCCCCCCCCC` [LB20], `CCCCCCCCCCOC(=O)CCN(CCCCO)CCC(=O)OCCCCCCCCCC` [LB28] is lower in “Luciferase expression as a percentage” value: 0.3% for the first, 0.1% for the second.

Compared with `CCCCCCCCCCOC(=O)CCN(CCC(=O)OCCCCCCCCCC)C[C@@H](C)O` [LB21], `CCCCCCCCCCOC(=O)CCN(CCC(=O)OCCCCCCCCCC)C[C@H](C)O` [LB22] is lower in “Luciferase expression as a percentage” value: 0.7% for the first, 0.4% for the second.

Compared with `CCCCCCCCCCOC(=O)CCN(CCC(=O)OCCCCCCCCCC)CC(O)CO` (stereo not drawn) [LB24], `CCCCCCCCCCOC(=O)CCN(CCC(=O)OCCCCCCCCCC)C(CO)CO` [LB25] is higher in “Luciferase expression as a percentage” value: 0.1% for the first, 2.3% for the second.

With `CCCCCCCCCCOC(=O)CCN(CCC(=O)OCCCCCCCCCC)C(C)(CO)CO` [LB26] the “Luciferase expression as a percentage” value was 0.1%.

`CCCCCCCCCCOC(=O)CCN(CCOCCO)CCC(=O)OCCCCCCCCCC` [LB31] was tested, and the “Luciferase expression as a percentage” value was 1.3% and 0.1%.

same assay, conditions: lipid/DNA 25 w/w; 300 ng Luciferase DNA per well; luciferase assay after 48 hours

Going from `CCCCCCCCCCOC(=O)CCN(CCCO)CCC(=O)OCCCCCCCCCC` [LB20] to `CCCCCCCCCCOC(=O)CCN(CCCCO)CCC(=O)OCCCCCCCCCC` [LB28], the “Luciferase expression as a percentage” value falls from 0.7% to 0.1%.

Going from `CCCCCCCCCCOC(=O)CCN(CCC(=O)OCCCCCCCCCC)C[C@@H](C)O` [LB21] to `CCCCCCCCCCOC(=O)CCN(CCC(=O)OCCCCCCCCCC)C[C@H](C)O` [LB22], the “Luciferase expression as a percentage” value falls from 0.8% to 0.4%.

First: CCCCCCCCCCOC(=O)CCN(CCC(=O)OCCCCCCCCCC)CC(O)CO (stereo not drawn) [LB24]
Second: CCCCCCCCCCOC(=O)CCN(CCC(=O)OCCCCCCCCCC)C(CO)CO [LB25]
The “Luciferase expression as a percentage” value of the first is lower: 0.1% for the first, 1.8% for the second.

`CCCCCCCCCCOC(=O)CCN(CCC(=O)OCCCCCCCCCC)C(C)(CO)CO` [LB26] was tested, and the “Luciferase expression as a percentage” value was 0.1%.

For `CCCCCCCCCCOC(=O)CCN(CCOCCO)CCC(=O)OCCCCCCCCCC` [LB31], the “Luciferase expression as a percentage” value was 4.2% and 0.1%.
